Laboratory results as given in patent US20160194308A1, “NOVEL PIPERIDINYL BENZOIMIDAZOLE DERIVATIVES AS MPGES-1 INHIBITORS” (NovaSAID AB, priority 2013, published 2016).

Experiments:
[1] = biological target: T1, recombinant membrane-bound human mPGEs-1 (Homo sapiens, UniProt O14684); assay: Thiobarbituric acid assay (TBA-MDA assay), inhibition of mPGEs-1; type: biochemical; details: arithmetic mean values, human mPGEs-1 TBA-MDA assay
T1 sequence (O14684 1-152): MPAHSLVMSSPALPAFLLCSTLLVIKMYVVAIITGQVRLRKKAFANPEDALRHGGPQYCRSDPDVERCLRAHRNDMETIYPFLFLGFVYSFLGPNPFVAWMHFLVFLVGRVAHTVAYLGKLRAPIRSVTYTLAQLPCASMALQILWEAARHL
Text: Malondialdehyde is a product of lipid peroxidation and reacts with thiobarbituric acid forming a red product that absorbs light at 535 nm (W. G. Niehaus, Jr and B. Samuelsson, Eur. J. Biochem 6, 126 (1968)) and is also fluorescent. The extinction coefficient of the TBA-MDA conjugate is 1.56×10^5 M^−1 cm^−1 (E. D. Wills. Biochem. J. 113, 315 (1969). The method used for detection of inhibition of mPGEs-1 is based on the detection of the amount of remaining PGH2. This method was described more than 20 years ago by Basevich et al (Bioorg. Khim. 1983, 9(5), 658-665).
The assay used was a modified variant and used citric acid instead of the TCA-TBA-HCl reagent described in the original assay. In this assay, recombinant membrane-bound human mPGEs-1 was incubated with PGH2. The reaction was stopped by adding citric acid to a final pH 3 and a large excess of iron(II) chloride (20 mM) to convert any remaining PGH2 into MDA and 12-HHT. TBA reagent was finally added (0.67%) and the samples were heated at 80° C. for 30 min. The fluorescence of the conjugate was measured at 485/545 nm.
The product of mPGEs-1 (PGE2) was not measured directly in this assay, but rather the remaining substrate (PGH2) indirectly by adding FeCl2 that converts PGH2 into MDA and 12-HHT. As a positive control, a known mPGEs-1 inhibitor, MK-886, was used and the inhibition afforded by the new inhibitors was compared with that obtained from MK-886.

[2] = biological target: T2, hERG potassium currents (CHO-K1 cells stably transfected with hERG) (Homo sapiens, UniProt Q12809); assay: Automated whole-cell patch-clamp hERG assay; type: cell-based; details: for IC50: Qpatch, tail current, CHO-K1 cells, 0.39 μM to 100 μM cumulatively; for IC50 ratio hERG/mPGEs-1: ratio of hERG IC50 to human mPGEs-1 IC50
T2 construct: expressed in transfected cells; host or cells: CHO-K1 cells (American Tissue Culture Collection), stably transfected
Protocol: The automated whole-cell patch-clamp hERG assay uses CHO-K1 cells obtained from American Tissue Culture Collection. hERG cDNA (GenBank sequence NM_000238) was subcloned into pSI vector (Promega). The CHO-K1 cells were co-transfected with this construct and pPUR (containing puromycin selective marker, BD Bioscience). After selection in puromycin for 10 days, single colonies were selected and verified with hERG potassium currents. The stably transfected cells were cultured in F-12 Kaighn's Nutrient Mixture medium (Invitrogen)+10% FBS at 37 C for 1-3 days. Subsequently the cells were harvested by trypsination and kept in serum free medium at room temperature before recording. The cells were washed and resuspended in extracellular solution before being applied to the patch clamp sites.
After whole cell configuration was achieved, the cell was held at −80 mV. A 50 millisecond pulse to −40 mV was delivered to measure the leaking current, which was subtracted from the tail current on-line. Then the cell was de-polarized to +20 mV for 2 seconds, followed by a second pulse to −40 mV to reveal hERG tail current. The paradigm was delivered once every 5 seconds to monitor the current amplitude. The extracellular solution (control) was applied first and the cell was stabilized in extracellular solution for 5 minutes. Then the test compound was applied from low concentrations (0.39 μM) to high concentrations (100 μM) cumulatively. The cell was incubated with each test concentration for 5 minutes. During the incubation, the cell was repeatedly stimulated using the voltage protocol described above, and the tail current amplitude was continuously monitored.
Data were acquired by Qpatch (Sophion Bioscience) and the degree of inhibition (%) was obtained by measuring the tail current amplitude before and after test compound incubation (the difference in current was normalized to control and multiplied by 100 to obtain the percent of inhibition). Concentration (log) response curves were fitted to a logistic equation (three parameters assuming complete block of the current at very high test compound concentrations) to generate estimates of the 50% inhibitory concentration (IC50). The concentration-response relationship of each compound was constructed from the percentage reductions of current amplitude by sequential concentrations (0.39 μM to 100 μM).
Further background information on the hERG assay is available in Expert Opin. Ther. Targets (2006) 10(2):319-327.

T2 sequence (Q12809 whole entry): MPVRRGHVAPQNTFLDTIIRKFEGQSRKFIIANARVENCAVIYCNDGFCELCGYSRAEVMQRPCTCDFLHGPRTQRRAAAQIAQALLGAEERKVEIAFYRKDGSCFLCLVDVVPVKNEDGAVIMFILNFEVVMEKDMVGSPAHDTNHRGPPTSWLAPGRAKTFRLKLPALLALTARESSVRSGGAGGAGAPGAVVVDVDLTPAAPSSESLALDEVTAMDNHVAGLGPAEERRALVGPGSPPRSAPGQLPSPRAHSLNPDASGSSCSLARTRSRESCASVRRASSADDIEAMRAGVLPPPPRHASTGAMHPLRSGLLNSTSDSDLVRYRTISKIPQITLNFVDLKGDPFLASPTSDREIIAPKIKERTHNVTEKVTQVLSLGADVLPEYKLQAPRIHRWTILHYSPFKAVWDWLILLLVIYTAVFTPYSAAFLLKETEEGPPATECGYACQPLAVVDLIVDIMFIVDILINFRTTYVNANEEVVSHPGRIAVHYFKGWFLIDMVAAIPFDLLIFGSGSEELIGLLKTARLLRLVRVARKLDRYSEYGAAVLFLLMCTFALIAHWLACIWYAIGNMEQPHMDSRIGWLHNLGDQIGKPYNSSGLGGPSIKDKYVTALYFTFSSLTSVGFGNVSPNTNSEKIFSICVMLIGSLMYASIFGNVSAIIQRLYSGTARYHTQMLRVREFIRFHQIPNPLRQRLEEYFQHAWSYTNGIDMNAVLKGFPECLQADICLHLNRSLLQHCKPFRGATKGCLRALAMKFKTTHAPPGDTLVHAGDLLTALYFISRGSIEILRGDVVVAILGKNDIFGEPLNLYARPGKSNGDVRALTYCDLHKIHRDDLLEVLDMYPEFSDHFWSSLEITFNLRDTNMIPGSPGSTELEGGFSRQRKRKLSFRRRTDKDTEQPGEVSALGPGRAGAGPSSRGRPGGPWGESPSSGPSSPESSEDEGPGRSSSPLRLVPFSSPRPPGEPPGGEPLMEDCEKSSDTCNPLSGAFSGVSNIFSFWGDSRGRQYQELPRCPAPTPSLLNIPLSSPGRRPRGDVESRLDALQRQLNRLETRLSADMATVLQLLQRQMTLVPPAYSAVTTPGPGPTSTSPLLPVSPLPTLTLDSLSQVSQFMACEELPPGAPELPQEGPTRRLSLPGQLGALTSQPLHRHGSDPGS

## Cc1cc2c(cc1Cl)nc(N1CCC(C(=O)N[C@H]3COC[C@@H]3O)CC1)n2-c1cccc(C(F)(F)F)n1 [Example 1, 1-(5-chloro-6-methyl-1-(6-(trifluoromethyl)pyridin-2-yl)-1H-benzo[d]imidazol-2-yl)-N-((3S,4R)-4-hydroxytetrahydrofuran-3-yl)piperidine-4-carboxamide]
[1]
  IC50: 0.038 µM
[2]
  IC50: 38 µM
  IC50 ratio hERG/mPGEs-1: 1000

## O=C(N[C@@H]1CCOC1)C1CCN(c2nc3cc(Cl)c(Cl)cc3n2-c2cccc(C(F)(F)F)n2)CC1 [Comparative Example 5, (R)-1-(5,6-dichloro-1-(6-(trifluoromethyl)pyridin-2-yl)-1H-benzo[d]imidazol-2-yl)-N-(tetrahydrofuran-3-yl)piperidine-4-carboxamide]
[1]
  IC50: 0.024 µM
[2]
  IC50: 2.1 µM
  IC50 ratio hERG/mPGEs-1: 88

## Cc1cc2c(cc1Cl)nc(N1CCC(C(=O)N[C@@H]3CCOC3)CC1)n2-c1ccc(C(F)(F)F)cn1 [Comparative Example 3, (R)-1-(5-chloro-6-methyl-1-(5-(trifluoromethyl)pyridin-2-yl)-1H-benzo[d]imidazol-2-yl)-N-(tetrahydrofuran-3-yl)-piperidine-4-carboxamide]
[2]
  IC50: 19 µM
  IC50 ratio hERG/mPGEs-1: 328

## Cc1cc2nc(N3CCC(C(=O)N[C@@H]4CCOC4)CC3)n(-c3ccc(C(F)(F)F)cn3)c2cc1Cl [Comparative Example 4, (R)-1-(6-chloro-5-methyl-1-(5-(trifluoromethyl)pyridin-2-yl)-1H-benzo[d]imidazol-2-yl)-N-(tetrahydrofuran-3-yl)-piperidine-4-carboxamide]
[2]
  IC50: 14 µM
  IC50 ratio hERG/mPGEs-1: 304

## Cc1cc2nc(N3CCC(C(=O)N[C@H]4COC[C@@H]4O)CC3)n(-c3cccc(C(F)(F)F)n3)c2cc1Cl [Example 2, 1-(6-chloro-5-methyl-1-(6-(trifluoromethyl)pyridin-2-yl)-1H-benzo[d]imidazol-2-yl)-N-((3S,4R)-4-hydroxytetrahydrofuran-3-yl)piperidine-4-carboxamide]
[1]
  IC50: 0.032 µM
[2]
  IC50: > 100 µM
  IC50 ratio hERG/mPGEs-1: >3125
